{"source": "patent US20220168206A1", "about": "“ACTIVE AGENT FOR USE IN HAIR GROWTH REGULATION” (MONASTERIUM LABORATORY SKIN & HAIR RESEARCH SOLUTIONS GMBH, priority 2019, published 2022)", "key": {"[1]": {"test_system": "TAS2R4 in anagen hair follicles", "test": "Activation of TAS2R4 with Rubusoside in cultured hair follicles", "type": "cell-based, human", "method": "(§1) For analyzing the effect of activating TAS2R4 by the agonist Rubusoside, hair follicles were cultured in WEM medium supplemented with 2 mM L-glutamine, 10 ng/mL hydrocortisone, 10 μg/mL insulin and 1% penicillin/streptomycin mix (WCM medium), and treated either with 50 μM Rubusoside (Sigma-Aldrich, cat. 62933) diluted in DMSO or vehicle (0.05% DMSO in WCM medium) according to the following procedure:\n(§2) Day 0: Isolation of anagen hair follicles\nDay 1: Change media, application of the substance corresponding to experimental groups (control group: 0.05% DMSO, experimental group: 50 μM Rubusoside)\n(§3) Day 6: Collection and freezing of hair follicles for analyses"}, "[2]": {"test_system": "TAS2R4 in human anagen hair follicles", "test": "Activation of TAS2R4 with Rebaudioside A in cultured hair follicles", "type": "cell-based", "method": "as §1, with “Rebaudioside A, human anagen” for “Rubusoside,”, “follicles from 2 donors” for “follicles”, “200” for “50”, “Rebaudioside A” for “Rubusoside”, “01432)” for “62933)”, “(0.5%” for “(0.05%”\nas §2\nDay 1: Change WCM media, application of the substance corresponding to experimental groups (control group: 0.5% DMSO, experimental group: 200 μM Rebaudioside A)\nas §3"}, "[3]": {"test_system": "TAS2R4 in anagen hair follicles", "test": "Activation of TAS2R4 with Stevioside in cultured hair follicles", "type": "cell-based, human", "method": "To determine the effect of activating TAS2R4 by the agonist Stevioside, anagen hair follicles were cultured in WEM medium supplemented with 2 mM L-glutamine, 10 ng/mL hydrocortisone, 10 μg/mL insulin and 1% penicillin/streptomycin mix (WCM medium), and treated either with 200 μM Stevioside (Sigma-Aldrich, cat. 50956) diluted in DMSO or vehicle (0.2% DMSO in WCM medium) according to the following procedure: Day 0: Isolation of anagen hair follicles Day 1: Change media, application of the substance corresponding to experimental groups (control group: 0.2% DMSO, experimental group: 200 μM Stevioside) Day 2: Rest Day 3: Change media Day 4: Rest Day 5: Change media Day 6: Rest Day 7: Collection and freezing of hair follicles for analyses"}, "[4]": {"test_system": "TAS2R4 in anagen hair follicles", "test": "Inactivation of TAS2R4 with BCML in cultured hair follicles", "type": "cell-based, human", "method": "For analyzing the effect of inactivating TAS2R4, by the inverse agonist Nα,Nα-bis(carboxymethyl)-l-lysine (BCML), hair follicles were cultured in WEM medium supplemented with 2 mM L-glutamine, 10 ng/mL hydrocortisone, 10 μg/mL insulin and 1% penicillin/streptomycin mix (WCM medium), and treated either with 120 μM BCML (Sigma-Aldrich, cat. 14580) diluted in WCM or vehicle (WCM medium) according to the following procedure:\nas §2\nDay 1: Change media, application of the substance corresponding to experimental groups (control group: WCM, experimental group: 120 μM BCML)\nDay 7: Collection and freezing of hair follicles for analyses"}, "[5]": {"conditions": "200 μM Rebaudioside A vs 0.5% DMSO, collection day 6"}, "[6]": {"conditions": "200 μM Stevioside vs 0.2% DMSO, collection day 7"}, "[7]": {"conditions": "120 μM BCML vs vehicle (WCM), collection day 7"}}}
{"smiles": "C=C1C[C@@]23CC[C@H]4[C@@](C)(CCC[C@@]4(C)C(=O)O[C@@H]4O[C@H](CO)[C@@H](O)[C@H](O)[C@H]4O)[C@@H]2CC[C@]1(O[C@@H]1O[C@H](CO)[C@@H](O)[C@H](O)[C@H]1O)C3", "note": "[Rubusoside]", "values": [{"measurement": "proportion of human hair follicles in catagen stage", "setting": "[1]; 50 μM Rubusoside vs 0.05% DMSO, collection day 6", "value": "increases"}, {"measurement": "hair growth", "setting": "[1]; summary statement, Rubusoside", "value": "hair growth inhibition"}]}
{"smiles": "C=C1C[C@@]23CC[C@H]4[C@@](C)(CCC[C@@]4(C)C(=O)O[C@@H]4O[C@H](CO)[C@@H](O)[C@H](O)[C@H]4O)[C@@H]2CC[C@]1(O[C@@H]1O[C@H](CO)[C@@H](O)[C@H](O[C@@H]2O[C@H](CO)[C@@H](O)[C@H](O)[C@H]2O)[C@H]1O[C@@H]1O[C@H](CO)[C@@H](O)[C@H](O)[C@H]1O)C3", "note": "[Rebaudioside A]", "values": [{"measurement": "proportion of hair follicles in catagen stage", "setting": "[2]; 200 μM Rebaudioside A vs 0.5% DMSO, 2 donors, collection day 6", "value": "increases"}, {"measurement": "apoptosis", "setting": "[2]; [5]", "value": "increases"}, {"measurement": "hair matrix keratinocyte proliferation", "setting": "[2]; [5]", "value": "decreases"}, {"measurement": "pigmentation", "setting": "[2]; [5]", "value": "hypopigmentation"}, {"measurement": "hair growth", "setting": "[2]; summary statement, Rebaudioside A", "value": "hair growth inhibition"}]}
{"smiles": "C=C1C[C@@]23CC[C@H]4[C@@](C)(CCC[C@@]4(C)C(=O)O[C@@H]4O[C@H](CO)[C@@H](O)[C@H](O)[C@H]4O)[C@@H]2CC[C@]1(O[C@@H]1O[C@H](CO)[C@@H](O)[C@H](O)[C@H]1O[C@@H]1O[C@H](CO)[C@@H](O)[C@H](O)[C@H]1O)C3", "note": "[Stevioside]", "values": [{"measurement": "apoptosis", "setting": "[3]; [6]", "value": "does not affect"}, {"measurement": "hair matrix keratinocyte proliferation", "setting": "[3]; [6]", "value": "decreases"}, {"measurement": "proportion of hair follicles in catagen stage", "setting": "[3]; [6]", "value": "increases"}, {"measurement": "hair growth", "setting": "[3]; summary statement, Stevioside", "value": "hair growth inhibition"}]}
{"smiles": "NCCCC[C@@H](C(=O)O)N(CC(=O)O)CC(=O)O", "note": "[BCML, Nα,Nα-bis(carboxymethyl)-l-lysine]", "values": [{"measurement": "apoptosis", "setting": "[4]; [7]", "value": "does not affect"}, {"measurement": "hair matrix keratinocyte proliferation", "setting": "[4]; [7]", "value": "increases"}, {"measurement": "pigmentation", "setting": "[4]; [7]", "value": "increases"}, {"measurement": "proportion of hair follicles in anagen stage", "setting": "[4]; [7]", "value": "increases"}, {"measurement": "hair growth", "setting": "[4]; summary statement, anagen hair follicles, BCML", "value": "hair growth promotion"}]}
